Results as given in patent US20230365563A1, “QUINAZOLINE COMPOUND AND APPLICATION THEREOF” (SHANGHAI PHARMACEUTICALS HOLDING CO., LTD., priority 2020, published 2023).
Counter-ions that a name gives are not always drawn.

Target: T1, KRAS-G12D and SOS1 (Homo sapiens, UniProt P01116, G12D)
T1 construct: purchased
Assay: Inhibition of KRAS-G12D/SOS1 binding (Cisbio binding kit, 665/615 ratio), Effect Embodiment A
Settings: read-out: GTP-KRAS-G12D:SOS1 IC50
Method: Similarly, the first dilution point of the compound to be tested was its storage solution, and the solution was 3-fold diluted, with 11+0 points of dilution. Echo was used to transfer 0.2 μL gradient diluted solution of the compounds into a 384-well plate, with 2 duplicated wells for each compound, and the final concentration of DMSO was 1%. The solution was centrifuged for 1 min at 1000 rpm/min.
IC50 of the compounds was fitted by Graphpad Prism 8 nonlinear regression equation: […]
The IC50 (half inhibitory concentration) of the compound was obtained by using the following nonlinear fitting formula: […]

T1 sequence (P01116 1-188 isoform P01116-2 G12D): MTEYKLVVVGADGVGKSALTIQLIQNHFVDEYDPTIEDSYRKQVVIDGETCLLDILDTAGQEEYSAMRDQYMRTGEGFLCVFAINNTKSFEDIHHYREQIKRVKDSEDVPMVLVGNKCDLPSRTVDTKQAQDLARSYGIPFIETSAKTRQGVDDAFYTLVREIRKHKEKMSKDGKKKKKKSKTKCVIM

CN(C)C1CN(c2nc(N=S3(=O)CCC(N)CC3)c3cc(Cl)c(-c4cc(O)cc5ccccc45)c(F)c3n2)C1 (single isomer, unassigned) [Compound 72b, (4R or S)-4-amino-1-(((S or R)-6-chloro-2-(3-(dimethylamino)azetidin-1-yl)-8-fluoro-7-(3-hydroxynaphthalen-1-yl)quinazolin-4-yl)imino)hexahydro-1-thiopyran 1-oxide]
IC50: 155 µM

CN1CCC[C@H]1COc1nc(N2CC3CCC(C2)N3)c2cc(F)c(-c3cc(O)cc4ccccc34)c(F)c2n1 (single isomer, unassigned) [Compound 160b, (S or R) 4-(4-((1R,5S)-3,8-diazabicyclo[3.2.1]octan-3-yl)-6,8-difluoro-2-((S)-1-methylpyrrolidin-2-yl)methoxy)quinazolin-7-yl)naphthalen-2-ol dihydrochloride]
IC50: 0.117 µM

CC(=O)NCCN(C)c1nc(N2CC(N(C)C)C2)nc2c(F)c(-c3cc(O)cc4ccccc34)c(Cl)cc12 (single isomer, unassigned) [Compound 84, (S or R)—N-(2-((6-chloro-2-(3-(dimethylamino)azetidin-1-yl)-8-fluoro-7-(3-hydroxynaphthalen-1-yl)quinazolin-4-yl)(methyl)amino)ethyl)acetamide]
IC50: 3.05 µM

CN(C)C1CN(c2nc(N3CC4CNCC4C3)c3cc(Cl)c(-c4cc(O)cc5ccccc45)c(F)c3n2)C1 (single isomer, unassigned) [Compound 14d, (S or R)-4-(6-chloro-2-(3-(dimethylamino)azetidin-1-yl)-8-fluoro-4-((3aR,6aR or 3aS,6aS)-hexahydro-pyrrolo[3,4-c]pyrrol-2(1H)-yl)quinazolin-7-yl)naphthalen-2-ol]
IC50: 56.7 µM

CCN(C)CCCOc1nc(N2CC3CCC(C2)N3)c2cc(Cl)c(-c3cc(O)cc4ccccc34)c(F)c2n1 (single isomer, unassigned) [Compound 49b, 4-((R or S)-4-((1R,5S)-3,8-diazabicyclo[3.2.1]octan-3-yl)-6-chloro-2-(3-(ethyl(methyl)amino)propoxy)-8-fluoroquinazolin-7-yl)naphthalen-2-ol dicarboxylate]
IC50: 13.8 µM

CN(C)CCCCc1nc(N2CC3CCC(C2)N3)c2cc(Cl)c(-c3cc(O)cc4ccccc34)c(F)c2n1 (single isomer, unassigned) [Compound 154a, 4-((S or R)-4-((1R,5S)-3,8-diazabicyclo[3.2.1]octan-3-yl)-6-chloro-2-(4-(dimethylamino)butyl)-8-fluoroquinazolin-7-yl)naphthalen-2-ol dihydrochloride]
IC50: 0.204 µM

CN1CCC[C@H]1COc1nc(N2CC3CCC(C2)N3)c2cc(Cl)c(-c3cc(O)c(F)c4ccccc34)c(F)c2n1 (single isomer, unassigned) [Compound 89b, (R or S)-4-(4-((1R,5S)-3,8-diazabicyclo[3.2.1]octan-3-yl)-6-chloro-8-fluoro-2-(S)-1-methylpyrrolidin-2-yl)methoxy)quinazolin-7-yl)-1-fluoronaphthalen-2-ol hydrochloride]
IC50: 5.34 µM

CN(C)C1CN(c2nc(N[C@@H]3C[C@H]4CCC[C@@H](C3)N4)c3cc(Cl)c(-c4cc(O)cc5ccccc45)c(F)c3n2)C1 (single isomer, unassigned) [Compound 32, 4-((S or R)-4-(((1R,3S,5S)-9-azabicyclo[3.3.1]nonan-3-yl)amino)-6-chloro-2-(3-(dimethylamino)azetidin-1-yl)-8-fluoroquinazolin-7-yl)naphthalen-2-ol]
IC50: 187 µM

CCc1cccc2cccc(-c3c(F)cc4c(N5CC6CCC(C5)N6)nc(OC[C@@]56CCCN5C[C@H](F)C6)nc4c3F)c12 (single isomer, unassigned) [Compound 281b, (R or S)-4-((1R,5S)-3,8-diazacyclo[3.2.1]octan-3-yl)-7-(8-ethylnaphthalen-1-yl)-6,8-difluoro-2-((2R,7aS)-2-fluorotetrahydro-1H-pyrrolin-7a(5H)-yl)methoxy)quinazoline dihydrochloride]
IC50: 0.449 µM

Oc1cc(-c2c(Cl)cc3c(N4CC5CCC(C4)N5)nc(OC[C@@]45CCCN4C[C@H](F)C5)nc3c2F)c2c(F)c(F)ccc2c1 (single isomer, unassigned) [Compound 214b, 4-(R or S)-4-((1R,5S)-3,8-diazabicyclo[3.2.1]octane-3-yl)-6-chloro-8-fluoro-2-((2R,7aS)-2-fluorotetrahydro-1H-pyrrolidin-7a(5H)-yl) methoxy) quinazolin-7-yl)-5,6-difluoronaphthalen-2-ol diformate]
IC50: 2.66 µM

CCCN(C)CCOc1nc(N2C[C@H]3CC[C@@H](C2)N3)c2cc(Cl)c(-c3cc(O)cc4ccccc34)c(F)c2n1 (single isomer, unassigned) [Compound 126, (S or R)-4-(4-((1R,5S)-3,8-diazabicyclo[3.2.1]octan-3-yl)-6-chloro-8-fluoro-2-(2-(methyl(propyl)amino)ethoxy)quinazolin-7-yl)naphthalen-2-ol dihydrochloride]
IC50: 0.134 µM

CN(C)C1CN(c2nc(N3CCC4(CC3)CNC4)c3cc(Cl)c(-c4cc(O)cc5ccccc45)c(F)c3n2)C1 (single isomer, unassigned) [Compound 11a, (R or S)-4-(6-chloro-2-(3-(dimethylamino)azetidin-1-yl)-8-fluoro-4-(2,7-diazaspiro[3.5]nonan-7-yl)quinazolin-7-yl)naphthalen-2-ol]
IC50: 1.53 µM

Oc1cc(-c2c(Cl)cc3c(N4CC5CCC(C4)N5)nc(OCCCN4CCCC4)nc3c2F)c2ccccc2c1 (single isomer, unassigned) [Compound 63b, 4-((R or S)-4-((1R,5S)-3,8-diazabicyclo[3.2.1]octan-3-yl)-6-chloro-8-fluoro-2-(3-(pyrrolidin-1-yl)propoxy)quinazolin-7-yl)naphthalen-2-ol]
IC50: 12.9 µM

CN(C)C1CN(c2nc(N3CC4CCC(C3)N4)c3cc(Cl)c(-c4cc(O)cc5cccc(Cl)c45)c(F)c3n2)C1 (single isomer, unassigned) [Compound 65a, 4-((S or R)-4-((1R,5S)-3,8-diazabicyclo[3.2.1]octan-3-yl)-6-chloro-2-(3-(dimethylamino)azetidin-1-yl)-8-fluoroquinazolin-7-yl)-5-chloronaphthalen-2-ol]
IC50: 44.6 µM

Oc1cc(-c2c(Cl)cc3c(N4CC5CCC(C4)N5)nc(OCC45CCCN4CCC5)nc3c2F)c2ccccc2c1 (single isomer, unassigned) [Compound 58b, 4-((R or S)-4-((1R,5S)-3,8-diazabicyclo[3.2.1]octan-3-yl)-6-chloro-8-fluoro-2-((tetrahydro-1H-pyrrolin-7a(5H)-yl)methoxy)quinazolin-7-yl)naphthalen-2-ol]
IC50: 15.1 µM

CCCN(C)CCCOc1nc(N2CC3CCC(C2)N3)c2cc(Cl)c(-c3cc(O)cc4ccccc34)c(F)c2n1 (single isomer, unassigned) [Compound 51b, 4-((R or S)-4-((1R,5S)-3,8-diazabicyclo[3.2.1]octan-3-yl)-6-chloro-8-fluoro-2-(3-(methyl(propyl)amino)propoxy)quinazolin-7-yl)naphthalen-2-ol]
IC50: 50.8 µM

CCc1cccc2cc(O)cc(-c3c(F)cc4c(N5CC6CCC(C5)N6)nc(OCCCN5CCOC[C@H]5C)nc4c3F)c12 (single isomer, unassigned) [Compound 282b, (R or S)-4-(4-((1R,5S)-3,8-diazacyclo[3.2.1]octan-3-yl)-6,8-difluoro-2-(3-((R)-3-methylmorpholinyl)propoxy)quinazolin-7-yl)-5-ethylnaphthalen-2-ol dihydrochloride]
IC50: 5.07 µM

Oc1cc(-c2c(Cl)cc3c(N4CC5CCC(C4)N5)nc(OCC(CN4C5CCC4COC5)C(F)(F)F)nc3c2F)c2ccccc2c1 (single isomer, unassigned) [Compound 218b, 4-((7S or 7R)-2-((2R or 2S)-2-((3-oxa-8-azabicyclo[3.2.1]octan-8-yl)methyl)-3,3,3-trifluoropropoxy)-4-((1R,5S)-3,8-diazabicyclo[3.2.1]octan-3-yl)-6-chloro-8-fluoroquinazolin-7-yl)naphthalen-2-ol formate]
IC50: 0.25 µM

CN(C)C1CN(c2nc(N3CC4CNCC4C3)c3cc(Cl)c(-c4cc(O)cc5ccccc45)c(F)c3n2)C1 (single isomer, unassigned) [Compound 14c, (R or S)-4-(6-chloro-2-(3-(dimethylamino)azetidin-1-yl)-8-fluoro-4-((3aR,6aR or 3aS,6aS)-hexahydro-pyrrolo[3,4-c]pyrrol-2(1H)-yl)quinazolin-7-yl)naphthalen-2-ol]
IC50: 9.49 µM

CN(C)CCCOc1nc(N2CC3CCC(C2)N3)c2cc(Cl)c(-c3cc(O)cc4ccccc34)c(F)c2n1 (single isomer, unassigned) [Compound 40b, (R or S)-4-(4-((1R,5,S)-3,8-diazabicyclo[3.2.1]octan-3-yl)-6-chloro-2-(3-(dimethylamino)propoxy)-8-fluoroquinazolin-7-yl)naphthalen-2-ol]
IC50: 4.8 µM

CN(C)C1CN(c2nc(C3CN(C(=N)N)C3)c3cc(Cl)c(-c4cc(O)cc5ccccc45)c(F)c3n2)C1 (single isomer, unassigned) [Compound 146]
IC50: 6.93 µM

CN(C)CCCn1c(=O)nc(N2CC3CCC(C2)N3)c2cc(Cl)c(-c3cc(O)cc4ccccc34)c(F)c21 (single isomer, unassigned) [Compound 74b, 4-((1R,5S)-3,8-diazabicyclo[3.2.1]octan-3-yl)-6-chloro-1-(3-(dimethylamino)propyl)-8-fluoro-7-((R or S)-3-hydroxynaphthalen-1-yl)quinazolin-2(1H)-one]
IC50: > 200 µM

Oc1cc(-c2c(Cl)cc3c(N4CC5CCC(C4)N5)nc(OCCCN4CCCCC4)nc3c2F)c2ccccc2c1 (single isomer, unassigned) [Compound 66b, 4-((R or S)-4-((1R,5S)-3,8-diazabicyclo[3.2.1]octan-3-yl)-6-chloro-8-fluoro-2-(3-(piperidin-1-yl)propoxy)quinazolin-7-yl)naphthalen-2-ol]
IC50: 18 µM
